Key:
Experiment in all cases: relative viability (nuclei count vs DMSO), 5 days (fraction); higher = more cells survive
[1] = test system: NCI-H647
Summary of the method: (§1)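 Lung cancer cell lines in 1536-well plates got either a single drug or a fixed anchor-drug dose together with five library-drug doses (not always all listed) in √10 steps, by pin tool, on the day after seeding. Nuclei were counted after 5 days, and relative viability is the treated-to-vehicle ratio of nuclei counts. Values are medians of duplicate plates.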

[2] = test system: NCI-H522
Summary of the method: as §1

[3] = test system: SK-MES-1
Summary of the method: as §1

[4] = test system: HARA
Summary of the method: as §1

[5] = test system: HCC-827
Summary of the method: as §1

[6] = test system: HCC-366
Summary of the method: as §1

[7] = test system: SK-LU-1
Summary of the method: as §1

[8] = test system: EKVX
Summary of the method: as §1

[9] = test system: NCI-H1734
Summary of the method: as §1

[10] = test system: NCI-H1792
Summary of the method: as §1

[11] = test system: NCI-H2009
Summary of the method: as §1

[12] = test system: NCI-H1993
Summary of the method: as §1

[13] = test system: BEN
Summary of the method: as §1

[14] = test system: NCI-H2087
Summary of the method: as §1

[15] = test system: NCI-H1355
Summary of the method: as §1

[16] = test system: LOU-NH91
Summary of the method: as §1

[17] = test system: NCI-H1437
Summary of the method: as §1

[18] = test system: NCI-H2342
Summary of the method: as §1

[19] = test system: NCI-H661
Summary of the method: as §1

[20] = test system: NCI-H2170
Summary of the method: as §1

[21] = test system: NCI-H1395
Summary of the method: as §1

[22] = test system: NCI-H2405
Summary of the method: as §1

CC(=O)O[C@@]12CO[C@@H]1C[C@H](O)[C@@]1(C)C(=O)[C@H](O)C3=C(C)[C@@H](OC(=O)[C@H](O)[C@@H](NC(=O)OC(C)(C)C)c4ccccc4)C[C@@](O)([C@@H](OC(=O)c4ccccc4)[C@H]21)C3(C)C [Docetaxel] + CC(=O)Nc1cccc(-n2c(=O)n(C3CC3)c(=O)c3c(Nc4ccc(I)cc4F)n(C)c(=O)c(C)c32)c1 [Trametinib] (partner 0.02 µM)
relative viability ([1]; first compound 0.0002 µM): 0.331
relative viability ([1]; first compound 0.000632 µM): 0.361
relative viability ([1]; first compound 0.002 µM): 0.178
relative viability ([1]; first compound 0.006325 µM): 0.118
relative viability ([1]; first compound 0.02 µM): 0.0816
relative viability ([2]; first compound 0.0002 µM): 0.79
relative viability ([2]; first compound 0.000632 µM): 0.723
relative viability ([2]; first compound 0.002 µM): 0.676
relative viability ([2]; first compound 0.006325 µM): 0.42
relative viability ([2]; first compound 0.02 µM): 0.389
relative viability ([3]; first compound 0.0002 µM): 0.63
relative viability ([3]; first compound 0.000632 µM): 0.758
relative viability ([3]; first compound 0.002 µM): 0.436
relative viability ([3]; first compound 0.006325 µM): 0.313
relative viability ([3]; first compound 0.02 µM): 0.185
relative viability ([4]; first compound 0.0002 µM): 0.456
relative viability ([4]; first compound 0.000632 µM): 0.155
relative viability ([4]; first compound 0.002 µM): 0.235
relative viability ([4]; first compound 0.006325 µM): 0.16
relative viability ([4]; first compound 0.02 µM): 0.104
relative viability ([5]; first compound 0.0002 µM): 0.545
relative viability ([5]; first compound 0.000632 µM): 0.524
relative viability ([5]; first compound 0.002 µM): 0.376
relative viability ([5]; first compound 0.006325 µM): 0.272
relative viability ([5]; first compound 0.02 µM): 0.189
relative viability ([6]; first compound 0.0002 µM): 0.303
relative viability ([6]; first compound 0.000632 µM): 0.102
relative viability ([6]; first compound 0.002 µM): 0.0555
relative viability ([6]; first compound 0.006325 µM): 0.0799
relative viability ([6]; first compound 0.02 µM): 0.0179
relative viability ([7]; first compound 0.0002 µM): 0.518
relative viability ([7]; first compound 0.000632 µM): 0.468
relative viability ([7]; first compound 0.002 µM): 0.411
relative viability ([7]; first compound 0.006325 µM): 0.281
relative viability ([7]; first compound 0.02 µM): 0.223
relative viability ([8]; first compound 0.0002 µM): 0.343
relative viability ([8]; first compound 0.000632 µM): 0.358
relative viability ([8]; first compound 0.002 µM): 0.185
relative viability ([8]; first compound 0.006325 µM): 0.286
relative viability ([8]; first compound 0.02 µM): 0.131
relative viability ([9]; first compound 0.0002 µM): 0.615
relative viability ([9]; first compound 0.000632 µM): 0.54
relative viability ([9]; first compound 0.002 µM): 0.351
relative viability ([9]; first compound 0.006325 µM): 0.337
relative viability ([9]; first compound 0.02 µM): 0.198
relative viability ([10]; first compound 0.0002 µM): 0.377
relative viability ([10]; first compound 0.000632 µM): 0.338
relative viability ([10]; first compound 0.002 µM): 0.31
relative viability ([10]; first compound 0.006325 µM): 0.142
relative viability ([10]; first compound 0.02 µM): 0.0842
relative viability ([11]; first compound 0.0002 µM): 0.273
relative viability ([11]; first compound 0.000632 µM): 0.312
relative viability ([11]; first compound 0.002 µM): 0.295
relative viability ([11]; first compound 0.006325 µM): 0.233
relative viability ([11]; first compound 0.02 µM): 0.175
relative viability ([12]; first compound 0.0002 µM): 0.504
relative viability ([12]; first compound 0.000632 µM): 0.578
relative viability ([12]; first compound 0.002 µM): 0.546
relative viability ([12]; first compound 0.006325 µM): 0.481
relative viability ([12]; first compound 0.02 µM): 0.3
relative viability ([13]; first compound 0.0002 µM): 1.08
relative viability ([13]; first compound 0.000632 µM): 1.04
relative viability ([13]; first compound 0.002 µM): 0.763
relative viability ([13]; first compound 0.006325 µM): 0.419
relative viability ([13]; first compound 0.02 µM): 0.322
relative viability ([14]; first compound 0.0002 µM): 0.159
relative viability ([14]; first compound 0.000632 µM): 0.208
relative viability ([14]; first compound 0.002 µM): 0.181
relative viability ([14]; first compound 0.006325 µM): 0.118
relative viability ([14]; first compound 0.02 µM): 0.0893
relative viability ([15]; first compound 0.0002 µM): 0.384
relative viability ([15]; first compound 0.000632 µM): 0.441
relative viability ([15]; first compound 0.002 µM): 0.262
relative viability ([15]; first compound 0.006325 µM): 0.26
relative viability ([15]; first compound 0.02 µM): 0.183
relative viability ([16]; first compound 0.0002 µM): 0.766
relative viability ([16]; first compound 0.000632 µM): 0.783
relative viability ([16]; first compound 0.002 µM): 0.607
relative viability ([16]; first compound 0.006325 µM): 0.449
relative viability ([16]; first compound 0.02 µM): 0.354
relative viability ([17]; first compound 0.0002 µM): 0.528
relative viability ([17]; first compound 0.000632 µM): 0.501
relative viability ([17]; first compound 0.002 µM): 0.264
relative viability ([17]; first compound 0.006325 µM): 0.216
relative viability ([18]; first compound 0.0002 µM): 0.898
relative viability ([18]; first compound 0.000632 µM): 0.836
relative viability ([18]; first compound 0.002 µM): 0.567
relative viability ([18]; first compound 0.006325 µM): 0.672
relative viability ([18]; first compound 0.02 µM): 0.483
relative viability ([19]; first compound 0.0002 µM): 0.53
relative viability ([19]; first compound 0.000632 µM): 0.611
relative viability ([19]; first compound 0.002 µM): 0.568
relative viability ([19]; first compound 0.006325 µM): 0.371
relative viability ([19]; first compound 0.02 µM): 0.347
relative viability ([20]; first compound 0.0002 µM): 0.887
relative viability ([20]; first compound 0.000632 µM): 0.848
relative viability ([20]; first compound 0.002 µM): 0.746
relative viability ([20]; first compound 0.006325 µM): 0.222
relative viability ([20]; first compound 0.02 µM): 0.167
relative viability ([21]; first compound 0.0002 µM): 1.04
relative viability ([21]; first compound 0.000632 µM): 1.06
relative viability ([21]; first compound 0.002 µM): 0.907
relative viability ([21]; first compound 0.006325 µM): 0.467
relative viability ([21]; first compound 0.02 µM): 0.297
relative viability ([22]; first compound 0.0002 µM): 0.597
relative viability ([22]; first compound 0.000632 µM): 0.618
relative viability ([22]; first compound 0.002 µM): 0.531
relative viability ([22]; first compound 0.006325 µM): 0.456
relative viability ([22]; first compound 0.02 µM): 0.266
